Experimental data from patent US9481676B2, “Azepino[4,5-B]indoles and methods of use” (Medivation Technologies, Inc., priority 2008, dated 2016).

Columns and labels:
[1] = target: T1, human recombinant serotonin (5-Hydroxytryptamine) 5-HT2C receptor (Homo sapiens, UniProt P28335); assay: Serotonin 5-HT2C radioligand binding ([3H]Mesulergine); details: compound at 1 μM; read-out: Serotonin (1 μM) 5-HT2C, percent inhibition of specific binding
T1 construct: expressed in transfected cells; host or cells: CHO-K1 cells
T1 sequence (P28335 33-458): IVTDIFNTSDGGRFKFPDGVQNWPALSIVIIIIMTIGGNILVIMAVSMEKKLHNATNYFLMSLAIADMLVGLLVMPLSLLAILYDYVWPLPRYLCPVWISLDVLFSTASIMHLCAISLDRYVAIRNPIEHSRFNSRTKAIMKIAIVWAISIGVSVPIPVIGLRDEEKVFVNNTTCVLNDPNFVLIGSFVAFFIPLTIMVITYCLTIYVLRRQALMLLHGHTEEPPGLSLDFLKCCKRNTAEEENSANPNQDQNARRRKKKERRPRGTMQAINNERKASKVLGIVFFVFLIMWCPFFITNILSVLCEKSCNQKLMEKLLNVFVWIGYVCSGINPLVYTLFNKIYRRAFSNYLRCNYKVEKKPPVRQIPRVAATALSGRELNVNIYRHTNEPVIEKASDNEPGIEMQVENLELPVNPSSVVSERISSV
In short: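 Membranes from CHO-K1 cells expressing human 5-HT2C, incubated with 1 nM [3H]mesulergine for 60 min at 25 °C in 50 mM Tris-HCl pH 7.4 with ascorbic acid and pargyline.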

[2] = target: T2, human recombinant adrenergic α1D receptor (Homo sapiens, UniProt P25100); assay: Adrenergic alpha1D radioligand binding ([3H]Prozosin); details: compound at 1 μM; read-out: Adrenergic (1 μM) α1D, percent inhibition of specific binding
T2 construct: expressed in transfected cells; host or cells: HEK-293 cells
T2 sequence (P25100 1-572): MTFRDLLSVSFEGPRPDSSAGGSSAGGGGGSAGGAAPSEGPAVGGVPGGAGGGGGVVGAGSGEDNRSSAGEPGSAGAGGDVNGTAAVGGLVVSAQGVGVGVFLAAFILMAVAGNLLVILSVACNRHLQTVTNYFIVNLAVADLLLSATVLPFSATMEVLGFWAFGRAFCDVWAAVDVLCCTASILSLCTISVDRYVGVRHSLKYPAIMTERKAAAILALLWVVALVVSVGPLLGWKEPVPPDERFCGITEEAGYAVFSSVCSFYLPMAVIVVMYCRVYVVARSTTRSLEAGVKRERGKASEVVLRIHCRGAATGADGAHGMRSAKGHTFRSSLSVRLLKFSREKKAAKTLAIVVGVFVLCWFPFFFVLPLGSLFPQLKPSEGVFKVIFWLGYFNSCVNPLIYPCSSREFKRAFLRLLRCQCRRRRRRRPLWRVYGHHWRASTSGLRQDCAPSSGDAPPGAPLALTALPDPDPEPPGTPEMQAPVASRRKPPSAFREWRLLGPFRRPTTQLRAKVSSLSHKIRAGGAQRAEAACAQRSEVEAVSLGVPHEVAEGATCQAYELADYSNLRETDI
In short: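 Membranes from HEK-293 cells expressing the human receptor in 50 mM Tris-HCl pH 7.4 were incubated 60 min at 25 °C with 0.6 nM [3H]prazosin. Nonspecific binding was defined with 10 μM phentolamine, and bound ligand measured by filtration.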

[3] = target: T3, human recombinant adrenergic α2B receptor (Homo sapiens, UniProt P18089); assay: Adrenergic alpha2B radioligand binding ([3H]Rauwolscine); details: compound at 1 μM; read-out: Adrenergic (1 μM) α2B, percent inhibition of specific binding
T3 construct: expressed in transfected cells; host or cells: CHO-K1 cells
T3 sequence (P18089 1-450): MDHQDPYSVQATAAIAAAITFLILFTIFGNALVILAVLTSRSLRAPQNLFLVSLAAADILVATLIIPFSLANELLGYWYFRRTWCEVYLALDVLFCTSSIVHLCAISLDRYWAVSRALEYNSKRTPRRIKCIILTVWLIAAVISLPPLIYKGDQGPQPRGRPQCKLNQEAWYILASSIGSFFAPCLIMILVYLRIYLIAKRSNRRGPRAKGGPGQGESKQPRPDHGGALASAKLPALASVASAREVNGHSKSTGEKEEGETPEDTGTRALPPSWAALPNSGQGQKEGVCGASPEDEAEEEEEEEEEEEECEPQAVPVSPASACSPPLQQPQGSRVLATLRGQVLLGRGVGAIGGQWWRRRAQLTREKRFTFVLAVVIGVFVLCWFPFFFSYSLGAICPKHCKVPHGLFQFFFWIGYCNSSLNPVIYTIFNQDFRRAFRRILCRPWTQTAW
In short: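 CHO-K1-expressed receptor in Tris-HCl pH 7.4 with MgCl2, EDTA, BSA, incubated 60 min at 25° C with 2.5 nM [3H]Rauwolscine; 10 μM prazosin defines non-specific binding.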

Q: Which results are given for `CN1CCc2c(n(CCc3ccc(C(F)(F)F)nc3)c3ccc(Cl)cc23)CC1` [Compound No. 1, 9-chloro-6-(2-(6-(trifluoromethyl)pyridin-3-yl)ethyl)-1,2,3,4,5,6-hexahydro-3-methylazepino[4,5-b]indole]?
A: inhibition at 1 µM [1]: 79%; inhibition at 1 µM [2]: 90%; inhibition at 1 µM [3]: 107%

Q: `C/C(=C\n1c2c(c3cc(Cl)ccc31)CCN(C)CC2)c1ccc(F)cc1` [Compound No. 2, 9-chloro-6-((E)-2-(4-fluorophenyl)prop-1-enyl)-1,2,3,4,5,6-hexahydro-3-methylazepino[4,5-b]indole] was tested. Which inhibition at 1 µM [1] did it give?
A: 88%

Q: What about the inhibition at 1 µM [2] of the same molecule?
A: 100%

Q: And the inhibition at 1 µM [3]?
A: 111%

Q: Which results are given for `Cc1cncc(CCn2c3c(c4cc(Cl)ccc42)CCN(C)CC3)c1` [Compound No. 3, 9-chloro-3-methyl-6-(2-(5-methylpyridin-3-yl)ethyl)-1,2,3,4,5,6-hexahydroazepino[4,5-b]indole]?
A: inhibition at 1 µM [1]: 94%; inhibition at 1 µM [2]: 89%; inhibition at 1 µM [3]: 112%

Q: What does the source list for `CC1CCN(C(=O)Cn2c3c(c4cc(Cl)ccc42)CCN(C)CC3)CC1` [Compound No. 76, 2-(9-chloro-2,3,4,5-tetrahydro-3-methylazepino[4,5-b]indol-6(1H)-yl)-1-(4-methylpiperidin-1-yl)ethanone]?
A: inhibition at 1 µM [1]: 78%; inhibition at 1 µM [2]: 37%; inhibition at 1 µM [3]: 31%

Q: For `COc1ccc(C(O)Cn2c3c(c4cc(Cl)ccc42)CCN(C)CC3)cc1OC` (stereo not drawn) [Compound No. 77, 2-(9-chloro-2,3,4,5-tetrahydro-3-methylazepino[4,5-b]indol-6(1H)-yl)-1-(3,4-dimethoxyphenyl)ethanol], which inhibition at 1 µM [1] is on record?
A: 72%

Q: And the inhibition at 1 µM [2]?
A: 81%

Q: What about the inhibition at 1 µM [3] of the same molecule?
A: 113%

Q: How did the inhibition at 1 µM [1] turn out when `COc1ccc(/C=C/n2c3c(c4cc(Cl)ccc42)CCN(C)CC3)cc1` [Compound No. 78, 6-(4-methoxystyryl)-9-chloro-1,2,3,4,5,6-hexahydro-3-methylazepino[4,5-b]indole] was run?
A: 98%

Q: And the inhibition at 1 µM [2]?
A: 102%

Q: What about the inhibition at 1 µM [3] of the same molecule?
A: 111%

Q: How did the inhibition at 1 µM [1] turn out when `Cc1ccc2c(c1)c1c(n2CC(=O)Nc2ccccc2)CCN(C)CC1` [Compound No. 79, 2-(2,3,4,5-tetrahydro-3,9-dimethylazepino[4,5-b]indol-6(1H)-yl)-N-phenylacetamide] was run?
A: -18%

Q: What about the inhibition at 1 µM [2] of the same molecule?
A: -6%

Q: What about the inhibition at 1 µM [3] of the same molecule?
A: 20%

Q: Which inhibition at 1 µM [1] does the source give for `C=C(Cn1c2c(c3cc(Cl)ccc31)CCN(C)CC2)c1ccc(F)cc1` [Compound No. 82, 9-chloro-6-(2-(4-fluorophenyl)allyl)-3-methyl-1,2,3,4,5,6-hexahydroazepino[4,5-b]indole] here?
A: 98%

Q: What about the inhibition at 1 µM [2] of the same molecule?
A: 96%

Q: What about the inhibition at 1 µM [3] of the same molecule?
A: 91%

Q: For `CN1CCc2c(n(/C=C/c3ccccc3F)c3ccc(Cl)cc23)CC1` [Compound No. 83, (E)-9-chloro-6-(2-fluorostyryl)-3-methyl-1,2,3,4,5,6-hexahydro azepino[4,5-b]indole], which inhibition at 1 µM [1] is on record?
A: 100%

Q: What about the inhibition at 1 µM [2] of the same molecule?
A: 93%

Q: And the inhibition at 1 µM [3]?
A: 113%

Q: `C/C(=C/n1c2c(c3cc(Cl)ccc31)CCN(C)CC2)c1ccc(Cl)cc1Cl` [Compound No. 152, (Z)-9-chloro-6-(2-(2,4-dichlorophenyl)prop-1-enyl)-1,2,3,4,5,6-hexahydro-3-methylazepino[4,5-b]indole] was tested. Which inhibition at 1 µM [1] did it give?
A: 94%

Q: And the inhibition at 1 µM [2]?
A: 47%

Q: What about the inhibition at 1 µM [3] of the same molecule?
A: 88%

Q: Which inhibition at 1 µM [1] does the source give for `COc1ccc(/C=C/n2c3c(c4cc(Cl)ccc42)CCN(C)CC3)cc1F` [Compound No. 158, (E)-6-(3-fluoro-4-methoxystyryl)-9-chloro-1,2,3,4,5,6-hexahydro-3-methylazepino[4,5-b]indole] here?
A: 99%

Q: And the inhibition at 1 µM [2]?
A: 98%

Q: And the inhibition at 1 µM [3]?
A: 109%

Q: How did the inhibition at 1 µM [1] turn out when `C/C(=C/n1c2c(c3cc(C)ccc31)CCN(C)CC2)c1ccc(Cl)cc1Cl` [Compound No. 174, (Z)-6-(2-(2,4-dichlorophenyl)prop-1-enyl)-1,2,3,4,5,6-hexahydro-3,9-dimethylazepino[4,5-b]indole] was run?
A: 101%

Q: And the inhibition at 1 µM [2]?
A: 89%

Q: And the inhibition at 1 µM [3]?
A: 105%

Q: Which results are given for `COc1ccc(/C=C/n2c3c(c4cc(C)ccc42)CCN(C)CC3)cc1F` [Compound No. 180, (E)-6-(3-fluoro-4-methoxystyryl)-1,2,3,4,5,6-hexahydro-3,9-dimethylazepino[4,5-b]indole]?
A: inhibition at 1 µM [1]: 100%; inhibition at 1 µM [2]: 98%; inhibition at 1 µM [3]: 103%

Q: With `Cc1ccc2c(c1)c1c(n2CC(=O)N2CCNCC2)CCN(C)CC1` [Compound No. 224, 2-(3,9-dimethyl-2,3,4,5-tetrahydroazepino[4,5-b]indol-6(1H)-yl)-1-(piperazin-1-yl)ethanone] as the molecule, how does the inhibition at 1 µM [1] read?
A: 11%

Q: What about the inhibition at 1 µM [2] of the same molecule?
A: 19%

Q: What about the inhibition at 1 µM [3] of the same molecule?
A: -6%

Q: What does the source list for `Cc1ccc2c(c1)c1c(n2CC(=O)N2CCC(C)CC2)CCN(C)CC1` [Compound No. 225, 2-(3,9-dimethyl-2,3,4,5-tetrahydroazepino[4,5-b]indol-6(1H)-yl)-1-(4-methylpiperidin-1-yl)ethanone]?
A: inhibition at 1 µM [1]: 44%; inhibition at 1 µM [2]: 34%; inhibition at 1 µM [3]: 13%

Q: `COc1ccc(/C=C/n2c3c(c4cc(Cl)ccc42)CCN(C)CC3)cc1OC` [Compound No. 226, (E)-9-chloro-6-(3,4-dimethoxystyryl)-3-methyl-1,2,3,4,5,6-hexahydroazepino[4,5-b]indole] was tested. Which inhibition at 1 µM [1] did it give?
A: 82%

Q: And the inhibition at 1 µM [2]?
A: 83%

Q: And the inhibition at 1 µM [3]?
A: 102%

Q: Which results are given for `COc1ccc(C(O)Cn2c3c(c4cc(C)ccc42)CCN(C)CC3)cc1OC` (stereo not drawn) [Compound No. 227, 1-(3,4-dimethoxyphenyl)-2-(3,9-dimethyl-2,3,4,5-tetrahydroazepino[4,5-b]indol-6(1H)-yl)ethanol]?
A: inhibition at 1 µM [1]: 66%; inhibition at 1 µM [2]: 73%; inhibition at 1 µM [3]: 98%

Q: Which results are given for `CN1CCc2c(n(/C=C/c3ccccc3)c3ccc(Cl)cc23)CC1` [Compound No. 228, (E)-9-chloro-3-methyl-6-styryl-1,2,3,4,5,6-hexahydroazepino[4,5-b]indole]?
A: inhibition at 1 µM [1]: 97%; inhibition at 1 µM [2]: 98%; inhibition at 1 µM [3]: 110%
